The values that follow come from patent US6121277A, “Camptothecin-skeleton compounds isolated from Mappia foetida and the use thereof as syntones for novel medicaments as well as therapeutical agents” (Indena S.p.A., priority 1996, dated 2000).

Like-named read-outs stand apart in the source and are kept apart here.

Experiment [1] relates to HCT116. Nature of the experiment: Cytotoxic activity against colon carcinoma line HCT116. It is filed as cell-based. As to conditions: Homo sapiens. An excerpt:
(§1) Compounds 1 have cytotoxic activity against tumor cell lines. For example, Table 1 reports the cytotoxic activity against a colon carcinoma line (HCT116) and against the same line resistant to the most common chemotherapeutics (HCT116/VM46).

In experiment [2] the test system is HCT116/VM46. Nature of the experiment: Cytotoxic activity against the same line resistant to the most common chemotherapeutics (HCT116/VM46). It is filed as cell-based. Conditions: Homo sapiens.
Source text: as §1

Take `CC[C@@]1(O)C(=O)OCc2c1cc1n(c2=O)Cc2cc3ccccc3nc2-1` [Camptothecin, camptothecin]: the IC50 in experiment [1] (HCT-116, read-out: IC50 Line HCT116) is 10.5 nM; in experiment [2] (HCT-116/VM46, read-out: IC50 Line HCT116/VM46), 96.7 nM.
As to `CCC(O)(C(=O)O)c1cc2n(c(=O)c1COC(C)=O)Cc1cc3ccccc3nc1-2` (stereo not shown) [17-Acetyl-camptothecinic acid, 17-acetyl-camptothecinic acid], the IC50 in experiment [1] (HCT-116, colon carcinoma line HCT116, read-out: IC50 Line HCT116) is 8.2 nM; in experiment [2] (HCT-116/VM46, HCT116/VM46, resistant to the most common chemotherapeutics, read-out: IC50 Line HCT116/VM46), 25.3 nM.
